Key:
[1] = system: F21T (DNA, G4) GGGTTAGGGTTAGGGTTAGGG; assay: FRET-melting; conditions: K+ (CacoK10, Table S1); CacoK10 buffer; 1 μM compound, 0.2 μM nucleic acid; no competitor
[2] = system: 5'Cy5-Myc (DNA, G4) GAGGGTGGGGAGGGTGGGGAAG; assay: Cy5 fluorescence quenching titration; conditions: 50 mM TrisHCl/Triton buffer (Table S1), 25 °C; 20 nM DNA; apparent
[3] = system: F-VEGF-T (RNA, G4) GGAGGAGGGGAGGAGGA; assay: FRET-melting; conditions: K+ (CacoK1, Table S1); CacoK1 buffer; 1 μM compound, 0.2 μM nucleic acid; no competitor
[4] = system: F-Kit2-T (DNA, G4) CGGGCGGGCGCGAGGGAGGGG; assay: FRET-melting; conditions: buffer not stated in main text
[5] = system: F-Myc-T (DNA, G4) GAGGGTGGGGAGGGTGGGGAAG; assay: FRET-melting; conditions: K+ (CacoK1, Table S1); CacoK1 buffer; 1 μM compound, 0.2 μM nucleic acid; no competitor
[6] = system: F-NRAS-T (RNA, G4) GGGAGGGGCGGGUCUGGG; assay: FRET-melting; conditions: 1 μM compound, 0.2 μM RNA; no competitor; buffer not stated
[7] = system: F-TERRA-T (RNA, G4) GGGUUAGGGUUAGGGUUAGGG; assay: FRET-melting; conditions: K+ (CacoK1, Table S1); CacoK1 buffer; 1 μM compound, 0.2 μM nucleic acid; no competitor
[8] = system: F-duplex (DNA, hairpin) TATAGCTATATTTTTTTATAGCTATA; assay: streptavidin bead pull-down, FAM fluorescence; conditions: Mg2+ (concentration in Table S1); 20 mM TrisHCl/MgCl2 buffer, 25 °C; 10 μM compound, 1 μM DNA; no TASQ = 1
[9] = system: F-VEGF (RNA, G4) GGAGGAGGGGAGGAGGA; assay: streptavidin bead pull-down, FAM fluorescence; conditions: Mg2+ (concentration in Table S1); 20 mM TrisHCl/MgCl2 buffer, 25 °C; 10 μM compound, 1 μM nucleic acid; no TASQ = 1
[10] = system: F-TERRA (RNA, G4) GGGUUAGGGUUAGGGUUAGGG; assay: streptavidin bead pull-down, FAM fluorescence; conditions: Mg2+ (concentration in Table S1); 20 mM TrisHCl/MgCl2 buffer, 25 °C; 10 μM compound, 1 μM nucleic acid; no TASQ = 1
[11] = system: F-NRAS (RNA, G4) GGGAGGGGCGGGUCUGGG; assay: streptavidin bead pull-down, FAM fluorescence; conditions: Mg2+ (concentration in Table S1); 20 mM TrisHCl/MgCl2 buffer, 25 °C; 10 μM compound, 1 μM nucleic acid; no TASQ = 1
[12] = system: F-Myc (DNA, G4) GAGGGTGGGGAGGGTGGGGAAG; assay: streptavidin bead pull-down, FAM fluorescence; conditions: Mg2+ (concentration in Table S1); 20 mM TrisHCl/MgCl2 buffer, 25 °C; 10 μM compound, 1 μM nucleic acid; no TASQ = 1
[13] = system: F-22AG (DNA, G4) AGGGTTAGGGTTAGGGTTAGGG; assay: streptavidin bead pull-down, FAM fluorescence; conditions: Mg2+ (concentration in Table S1); 20 mM TrisHCl/MgCl2 buffer, 25 °C; 10 μM compound, 1 μM nucleic acid; no TASQ = 1
[14] = system: G4-strand (97-nt ODN) (DNA, G4) TAGCCATTCAGCCGTAACAGGCAGTGGAAGAGAGACAGACAGGGCAGGGCAGGGCAGGGCAGTACAGTAGAACCTAATGGTGTTTGATGGTATCTAA; assay: streptavidin bead pull-down, qPCR (SYBR green); conditions: 40 μM compound, 4 μM DNA; fluorescence difference from no TASQ

Row | ΔT1/2 [1] | appKD [2] | ΔT1/2 [3] | ΔT1/2 [4] | ΔT1/2 [5] | ΔT1/2 [6] | ΔT1/2 [7] | fold enrichment [8] | fold enrichment [9] | fold enrichment [10] | fold enrichment [11] | fold enrichment [12] | fold enrichment [13] | ΔFI [14] | Compound
1 | 2.5 ± 0.2 °C | 1.44 ± 0.1 µM | 11.9 ± 0.4 °C | 5.8 ± 0.2 °C | 5.3 ± 0.3 °C | 11.8 ± 0.7 °C | 11.0 ± 0.9 °C | – | – | – | – | – | – | – | C#CCCCC(=O)NCC1CN(CCCCCNC(=O)CN(CCN)C(=O)Cn2cnc3c(=O)[nH]c(N)nc32)CCN(CCCCCNC(=O)CN(CCN)C(=O)Cn2cnc3c(=O)[nH]c(N)nc32)CCN(CCCCCNC(=O)CN(CCN)C(=O)Cn2cnc3c(=O)[nH]c(N)nc32)CCN1CCCCCNC(=O)CN(CCN)C(=O)Cn1cnc2c(=O)[nH]c(N)nc21 (centres unmarked)
2 | – | 0.0577 ± 0.0002 µM | – | – | – | – | – | – | – | – | – | – | – | – | C[n+]1cc(NC(=O)c2ccc3ccc4ccc(C(=O)Nc5cc6ccccc6[n+](C)c5)nc4c3n2)cc2ccccc21
3 | – | 1.01 ± 0.1 µM | – | – | – | – | – | 0.9 ± 0.2 fold | 8.2 ± 0.2 fold | 4.0 ± 0.0 fold | 5.2 ± 0.9 fold | 21.5 ± 0.1 fold | 15.9 ± 0.9 fold | 457 | NCCN(CC(=O)NCCCCCN1CCN(CCCCCNC(=O)CN(CCN)C(=O)Cn2cnc3c(=O)[nH]c(N)nc32)CCN(CCCCCNC(=O)CN(CCN)C(=O)Cn2cnc3c(=O)[nH]c(N)nc32)C(CNC(=O)CCCC[C@@H]2SC[C@@H]3NC(=O)N[C@@H]32)CN(CCCCCNC(=O)CN(CCN)C(=O)Cn2cnc3c(=O)[nH]c(N)nc32)CC1)C(=O)Cn1cnc2c(=O)[nH]c(N)nc21 (some centres unmarked)
4 | 2.2 ± 0.3 °C | 0.90 ± 0.1 µM | 11.3 ± 0.4 °C | 7.7 ± 1.0 °C | 6.4 ± 0.2 °C | 14.6 ± 1.1 °C | 12.4 ± 0.6 °C | – | – | – | – | – | – | – | [N-]=[N+]=NCCCCCC(=O)NCC1CN(CCCCCNC(=O)CN(CCN)C(=O)Cn2cnc3c(=O)[nH]c(N)nc32)CCN(CCCCCNC(=O)CN(CCN)C(=O)Cn2cnc3c(=O)[nH]c(N)nc32)CCN(CCCCCNC(=O)CN(CCN)C(=O)Cn2cnc3c(=O)[nH]c(N)nc32)CCN1CCCCCNC(=O)CN(CCN)C(=O)Cn1cnc2c(=O)[nH]c(N)nc21 (centres unmarked)
